According to publication PMC5811991 (Biochemistry, 2008):

Target: GDP-perosamine synthase (Caulobacter vibrioides, UniProt Q9A9H3)
Assay: HPLC assay of substrate decrease
Format: biochemical
Settings: substrate inhibition, competitive versus glutamate (ping-pong, Eq. 1); 100 μM PLP, 20 mM HEPES pH 7.5, 110 mM NaCl, 10 mM MgCl2, room temperature

Chain of GDP-perosamine synthase (Q9A9H3 whole entry): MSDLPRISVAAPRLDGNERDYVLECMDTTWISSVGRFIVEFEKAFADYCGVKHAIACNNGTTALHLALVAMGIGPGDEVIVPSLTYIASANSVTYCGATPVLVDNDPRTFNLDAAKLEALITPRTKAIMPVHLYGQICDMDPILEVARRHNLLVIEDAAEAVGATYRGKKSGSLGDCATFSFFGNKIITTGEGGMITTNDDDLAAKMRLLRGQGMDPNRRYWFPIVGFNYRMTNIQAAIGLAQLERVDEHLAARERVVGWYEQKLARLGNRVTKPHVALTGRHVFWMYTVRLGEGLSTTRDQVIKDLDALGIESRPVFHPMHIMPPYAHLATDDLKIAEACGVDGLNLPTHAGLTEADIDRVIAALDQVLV

Q: How did the “Ki sugar” value turn out when `C[C@H]1O[C@H](OP(=O)(O)OP(=O)(O)OC[C@H]2O[C@@H](n3cnc4c(=O)[nH]c(N)nc43)[C@H](O)[C@@H]2O)[C@@H](O)[C@@H](O)C1=O` [GDP-4-keto-6-deoxymannose] was run?
A: 89 ± 34 µM
